In US20230219951A1, “PYRIDINE-PYRIMIDINE DERIVATIVE, PREPARATION METHOD THEREFOR AND PHARMACEUTICAL USE THEREOF” (Jiangsu Hengrui Pharmaceuticals Co., Ltd., priority 2020, published 2023):

Experiments:
[1] = tested on: ERK phosphorylation of H358 cells; test: Inhibition of ERK phosphorylation of H358 cells (HTRF pERK/total ERK); format: cell-based; conditions: Homo sapiens, NCI-H358, 1 h incubation, pERK/total ERK ratio
How it was run: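 H358 (KRAS G12C) cells were treated 1 h at 37°C with compound, 9 points by 5-fold dilution from 10 μM (final), 0.1% DMSO blank. Lysates were probed by HTRF with phospho-ERK1/2 and total-ERK1/2 antibodies overnight at room temperature, and IC50 was fitted from the pERK/total ERK ratio.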

H358 cells = test: Inhibition of proliferation of H358 cells (CellTiter-Glo 3D); format: cell-based; conditions: Homo sapiens, NCI-H358, low adsorption plate, 120 h
How it was run: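 H358 cells at 1500/well in low-adsorption plates (RPMI, 10% FBS), centrifuged and grown overnight, then exposed 120 h at 37 °C to 9 concentrations, 5-fold dilutions from 10 μM; 0.1% DMSO blank. Luminescence read with CellTiter-Glo 3D; IC50 calculated from the curves.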

[2] = Pharmacokinetic evaluation in dogs; format: in vivo; conditions: both sexes, dog, plasma, po, beagle dogs, intragastric administration, 2 mg/kg
Protocol: The drug concentration in the plasma of the test animals (dogs) at different time points after intragastric administration (i.g.) of compound 18-p1 was determined by using an LC/MS/MS method. The pharmacokinetic behavior in dogs of the compound of the present disclosure was studied and its pharmacokinetic profile was evaluated.
Four beagle dogs, half male and half female, fasted overnight, supplied by animal reserve bank (999M-004). All animals were beagle dogs qualified for physical examination and healthy without abnormalities.
An amount of compound 18-p1 was weighed and dissolved in 5% by volume of DMSO, 20% by volume of PG, and 20% by volume of PEG400, and then prepared into a 0.4 mg/mL clear solution with 55% normal saline.
The administration was performed at a dose of 2.0 mg/kg and a volume of 5.0 mL/kg.
The compound 18-p1 was administered intragastrically to dogs, and 1.0 mL of blood was collected from jugular vein or forelimb vein before administration and 0.25 h, 0.5 h, 1.0 h, 2.0 h, 4.0 h, 6.0 h, 8.0 h, 12.0 h and 24.0 h after administration. The blood was placed in an EDTA-K2 anticoagulation tube and centrifuged at 10,000 rpm for 5 min (4° C.), and plasma was separated out within 1 h and then stored at −80° C. for testing. The process from blood sampling to centrifugation was performed under an ice bath. Food intake was resumed 3 h after administration.
The content of the test compounds at different concentrations in plasma of dogs after administration was determined: 25 μL of plasma of dogs at each time point after administration was taken, and 200 μL of acetonitrile (containing 50 μL of internal standard solution camptothecin, 100 ng/mL) was added; the mixture was vortexed for 5 min, and centrifuged for 10 min (4000 r/min). 0.3 μL of supernatant was taken from the plasma sample for LC/MS/MS analysis.

In the case of Cc1nc(N[C@H](C)c2cccc(C(F)F)c2F)c2cc([C@]3(O)CC[C@@H](O)CC3)c(=O)[nH]c2n1 [Example 18-p1, 4-(((R)-1-(3-(difluoromethyl)-2-fluorophenyl)ethyl)amino)-6-((1s,4S)-1,4-dihydroxycyclohexyl)-2-methylpyrido[2,3-d]pyrimidin-7(8H)-one], the IC50 [1] is reported as 51 nM, the IC50 (H358 cells) is reported as 72 nM and the Vd/F ([2]; read-out: Apparent distribution volume Vz/F) is reported as 2.63 L/kg. It also gave an AUC(0-t) ([2]; read-out: Area under curve AUC0-t) of 4600 ng·h/mL, a CL/F ([2]; read-out: Clearance CLz/F) of 7.64 mL/min/kg and a half-life ([2]; read-out: Half-life T½ (converted)) of 235 min. For the same compound, the Cmax ([2]; read-out: Plasma concentration Cmax) was 710 ng/mL.
